4 compounds from patent US20230265151A1, “GIP/GLP1 CO-AGONIST COMPOUNDS” (priority 2020, published 2023) can be followed below.

Common to all, as to assay type: cell-based
One assay deals with T1, hGCGR (Homo sapiens, UniProt P47871).
T1 construct: expressed in transfected cells
Briefly: Functional cAMP formation (HTRF) in HEK-293 clonal cells expressing hGCGR, 0.1% bovine casein, without or with 1.0% human serum albumin. In a few lines:
(§1)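 Cells were stimulated with peptide for 30 min at 37° C, then intracellular cAMP was measured by competitive HTRF (665/620 nm ratio) and converted to nM using a cAMP standard curve. Relative EC50 and Emax came from four-parameter logistic fits of percent maximal response against peptide concentration.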

For a further assay, the target named is hGLP-1R (Homo sapiens, UniProt P43220). Briefly: Functional cAMP formation (HTRF) in HEK-293 clonal cells expressing hGLP-1R, 0.1% bovine casein, without or with 1.0% human serum albumin. Details: expressed in transfected cells. Particulars: for EC50: cAMP. Put shortly: as §1
On the technique in general: Changes in cAMP serve as a functional read-out for many G protein-coupled receptors.

Another assay has as its target T2, hGIPR (Homo sapiens, UniProt P48546).
T2 construct: expressed in transfected cells
T2 sequence (P48546 22-466): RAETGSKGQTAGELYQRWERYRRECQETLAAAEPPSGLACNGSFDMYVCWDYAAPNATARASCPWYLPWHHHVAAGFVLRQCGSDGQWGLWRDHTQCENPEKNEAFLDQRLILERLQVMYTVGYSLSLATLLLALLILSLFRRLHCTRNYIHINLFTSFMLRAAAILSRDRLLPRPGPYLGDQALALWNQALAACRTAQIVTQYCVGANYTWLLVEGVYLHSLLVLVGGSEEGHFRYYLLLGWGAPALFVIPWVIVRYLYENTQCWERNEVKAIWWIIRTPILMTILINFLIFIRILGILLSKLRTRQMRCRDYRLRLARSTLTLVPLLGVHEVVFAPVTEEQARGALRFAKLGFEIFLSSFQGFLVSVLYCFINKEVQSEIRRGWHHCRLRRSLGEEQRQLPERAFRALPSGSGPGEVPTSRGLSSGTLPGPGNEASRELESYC
Briefly: Functional cAMP formation (HTRF) in HEK-293 clonal cells expressing hGIPR, 0.1% bovine casein, without or with 1.0% human serum albumin. Particulars: for Emax: percent of maximal response to GIP(1-42)NH2; for EC50: geometric mean. In a few lines: as §1

Setting [1] is: hGCGR EC50, nM (SEM, n), 0.1% bovine casein and 1.0% human serum albumin, 37° C., geometric mean.
[2] abbreviates: HEK293, read-out: hGIPR Emax, % ± SEM, 0.1% bovine casein and 1.0% human serum albumin, 37° C.
Where [3] appears, read: hGIPR EC50, nM (SEM, n), 0.1% bovine casein and 1.0% human serum albumin, 37° C.
Setting [4] is: cAMP, 37° C., 0.1% bovine casein (no human serum albumin), geometric mean, read-out: hGCGR EC50, nM (SEM, n).
[5] abbreviates: cAMP, 37° C., 0.1% bovine casein and 1.0% human serum albumin, geometric mean (SEM, n), read-out: hGCGR EC50, nM (SEM, n).
[6] abbreviates: HEK293, cAMP, 37° C., 0.1% bovine casein, percent of maximal response to GLP-1(7-36)NH2, arithmetic mean, read-out: hGLP-1R Emax, % ± SEM.
[7] abbreviates: 37° C., 0.1% bovine casein (no human serum albumin), geometric mean, read-out: hGLP-1R EC50, nM (SEM, n).
Where [8] appears, read: HEK293, cAMP, 37° C., 0.1% bovine casein and 1.0% human serum albumin, read-out: hGIPR Emax, % ± SEM.
The mark [9] stands for this setting: cAMP, 37° C., 0.1% bovine casein (no human serum albumin), read-out: hGIPR EC50, nM (SEM, n).

Read-outs that look alike come from different tables or passages of the source.

Sequence of hGLP-1R (P43220 24-463): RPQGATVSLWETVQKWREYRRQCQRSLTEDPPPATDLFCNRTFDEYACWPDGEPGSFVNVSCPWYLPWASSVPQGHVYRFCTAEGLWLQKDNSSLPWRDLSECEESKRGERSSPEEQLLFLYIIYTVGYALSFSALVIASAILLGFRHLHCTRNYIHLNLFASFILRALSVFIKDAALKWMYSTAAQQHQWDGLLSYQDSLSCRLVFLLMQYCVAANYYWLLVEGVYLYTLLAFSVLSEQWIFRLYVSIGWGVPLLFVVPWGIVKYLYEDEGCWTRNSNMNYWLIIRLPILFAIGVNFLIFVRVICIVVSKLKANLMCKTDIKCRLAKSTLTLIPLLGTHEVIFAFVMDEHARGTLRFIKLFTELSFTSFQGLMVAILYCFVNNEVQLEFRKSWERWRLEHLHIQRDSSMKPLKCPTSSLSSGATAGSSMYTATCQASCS
T1 sequence (P47871 26-477): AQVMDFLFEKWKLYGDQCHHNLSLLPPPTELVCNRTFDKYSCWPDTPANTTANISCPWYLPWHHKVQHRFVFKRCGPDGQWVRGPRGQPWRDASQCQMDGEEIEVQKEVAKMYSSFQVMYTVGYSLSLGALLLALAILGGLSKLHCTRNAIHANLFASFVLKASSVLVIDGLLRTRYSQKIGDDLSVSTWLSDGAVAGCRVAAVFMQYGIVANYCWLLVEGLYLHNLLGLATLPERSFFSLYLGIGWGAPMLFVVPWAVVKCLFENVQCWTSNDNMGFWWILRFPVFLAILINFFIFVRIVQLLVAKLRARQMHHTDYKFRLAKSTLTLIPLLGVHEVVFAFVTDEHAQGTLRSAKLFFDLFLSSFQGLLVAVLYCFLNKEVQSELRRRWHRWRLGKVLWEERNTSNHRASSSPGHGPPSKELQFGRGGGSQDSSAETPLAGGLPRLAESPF

A word on the EC50: it is the concentration that produces a half-maximal response. For orientation: Emax means the greatest response seen or fitted, relative to the assay's reference. For `CC[C@H](C)[C@H](NC(=O)[C@H](CCCN)NC(=O)[C@H](CC(=O)O)NC(=O)[C@H](CC(C)C)NC(=O)[C@](C)(CC(C)C)NC(=O)[C@@H](NC(=O)C(C)(C)NC(=O)[C@H](Cc1ccncc1)NC(=O)[C@H](CC(=O)O)NC(=O)[C@H](CO)NC(=O)[C@@H](NC(=O)[C@](C)(Cc1ccccc1F)NC(=O)[C@@H](NC(=O)CNC(=O)[C@H](CCC(=O)O)NC(=O)C(C)(C)NC(=O)[C@@H](N)Cc1ccc(O)cc1)[C@@H](C)O)[C@@H](C)O)[C@@H](C)CC)C(=O)N[C@@H](C)C(=O)N[C@@H](CCC(N)=O)C(=O)NC(C)(C)C(=O)N[C@@H](CCC(=O)O)C(=O)N[C@@H](Cc1ccccc1)C(=O)N[C@H](C(=O)N[C@@H](CCCCNC(=O)COCCOCCNC(=O)COCCOCCNC(=O)CC[C@H](NC(=O)CCCCCCCCCCOc1ccc(C(=O)O)cc1)C(=O)O)C(=O)N[C@@](C)(Cc1ccc(O)cc1)C(=O)N[C@@H](CC(C)C)C(=O)N[C@H](C(=O)N[C@@H](CCCCNC(=O)COCCOCCNC(=O)COCCOCCNC(=O)CC[C@H](NC(=O)CCCCCCCCCCOc1ccc(C(=O)O)cc1)C(=O)O)C(=O)NCC(=O)NCC(=O)N1CCC[C@H]1C(=O)N[C@@H](CO)C(=O)N[C@@H](CO)C(=O)NCC(=O)N[C@@H](C)C(=O)N1CCC[C@H]1C(=O)N1CCC[C@H]1C(=O)N1CCC[C@H]1C(=O)N[C@@H](CO)C(N)=O)[C@@H](C)CC)[C@@H](C)CC` [Example 311], the EC50 is above 9950 nM on hGCGR (setting [1]); above 9950 nM at hGCGR (hGCGR EC50, nM (SEM, n), cAMP, 37° C., 0.1% bovine casein (no human serum albumin), geometric mean); 0.791 nM on hGLP-1R (hGLP-1R EC50, nM (SEM, n), 37° C., 0.1% bovine casein (no human serum albumin), geometric mean); 2.16 nM on hGIPR (setting [3]); 0.0243 nM at hGIPR (hGIPR EC50, nM (SEM, n), cAMP, 37° C., 0.1% bovine casein (no human serum albumin)). Moreover, the maximal effect (Emax) on hGLP-1R (HEK293, read-out: hGLP-1R Emax, % ± SEM, cAMP, 37° C., 0.1% bovine casein, percent of maximal response to GLP-1(7-36)NH2, arithmetic mean) turned out to be 110%; on hGIPR (setting [2]), 98.3%; at hGIPR (HEK293, read-out: hGIPR Emax, % ± SEM, cAMP, 37° C., 0.1% bovine casein, arithmetic mean), 105%.
`CC[C@H](C)[C@H](NC(=O)[C@H](CCCN)NC(=O)[C@H](CC(=O)O)NC(=O)[C@H](CC(C)C)NC(=O)[C@](C)(CC(C)C)NC(=O)[C@@H](NC(=O)C(C)(C)NC(=O)[C@H](Cc1ccc(O)cc1)NC(=O)[C@H](CC(=O)O)NC(=O)[C@H](CO)NC(=O)[C@@H](NC(=O)[C@](C)(Cc1ccccc1F)NC(=O)[C@@H](NC(=O)CNC(=O)[C@H](CCC(=O)O)NC(=O)C(C)(C)NC(=O)[C@@H](N)Cc1ccc(O)cc1)[C@@H](C)O)[C@@H](C)O)[C@@H](C)CC)C(=O)N[C@@H](C)C(=O)N[C@@H](CCC(N)=O)C(=O)NC(C)(C)C(=O)N[C@@H](CCCN)C(=O)N[C@@H](Cc1ccccc1)C(=O)N[C@H](C(=O)N[C@@H](CCCCNC(=O)COCCOCCNC(=O)COCCOCCNC(=O)COCCOCCNC(=O)CC[C@H](NC(=O)CCCCCCCCCCCCC(=O)O)C(=O)O)C(=O)N[C@@](C)(Cc1ccc(O)cc1)C(=O)N[C@@H](CC(C)C)C(=O)N[C@H](C(=O)N[C@@H](CCCCNC(=O)COCCOCCNC(=O)COCCOCCNC(=O)COCCOCCNC(=O)CC[C@H](NC(=O)CCCCCCCCCCCCC(=O)O)C(=O)O)C(=O)NCC(=O)NCC(=O)N1CCC[C@H]1C(=O)N[C@@H](CO)C(=O)N[C@@H](CO)C(=O)NCC(=O)N[C@@H](C)C(=O)N1CCC[C@H]1C(=O)N1CCC[C@H]1C(=O)N1CCC[C@H]1C(=O)N[C@@H](CO)C(N)=O)[C@@H](C)CC)[C@@H](C)CC` [Example 478]: the EC50 on hGCGR (setting [4]) was above 9950 nM; at hGCGR (setting [5]), above 9950 nM; at hGLP-1R (setting [7]), 0.322 nM; at hGLP-1R (37° C., 0.1% bovine casein and 1.0% human serum albumin, geometric mean (SEM, n), read-out: hGLP-1R EC50, nM (SEM, n)), 6.16 nM; at hGIPR (setting [9]), 0.0139 nM. Moreover, the Emax at hGLP-1R (setting [6]) turned out to be 109%; on hGIPR (setting [8]), 84%; at hGIPR (HEK293, cAMP, 37° C., 0.1% bovine casein, arithmetic mean, read-out: hGIPR Emax, % ± SEM), 93.9%.
On to `CC[C@H](C)[C@H](NC(=O)[C@H](CC(C)C)NC(=O)[C@](C)(Cc1ccc(O)cc1)NC(=O)[C@@H](CCC(=O)O)NC(=O)[C@@H](NC(=O)[C@H](Cc1ccccc1)NC(=O)[C@H](CCCCNC(=O)COCCOCCNC(=O)COCCOCCNC(=O)CC[C@H](NC(=O)CCCCCCCCCCCCC(=O)O)C(=O)O)NC(=O)C(C)(C)NC(=O)[C@H](CCC(N)=O)NC(=O)[C@H](C)NC(=O)[C@H](CCCCNC(=O)COCCOCCNC(=O)COCCOCCNC(=O)CC[C@H](NC(=O)CCCCCCCCCCCCC(=O)O)C(=O)O)NC(=O)[C@H](CCCN)NC(=O)[C@H](CC(=O)O)NC(=O)[C@H](CC(C)C)NC(=O)[C@](C)(CC(C)C)NC(=O)[C@@H](NC(=O)C(C)(C)NC(=O)[C@H](Cc1ccncc1)NC(=O)[C@H](CC(=O)O)NC(=O)[C@H](CO)NC(=O)[C@@H](NC(=O)[C@](C)(Cc1ccccc1F)NC(=O)[C@@H](NC(=O)CNC(=O)[C@H](CCC(=O)O)NC(=O)C(C)(C)NC(=O)[C@@H](N)Cc1ccc(O)cc1)[C@@H](C)O)[C@@H](C)O)[C@@H](C)CC)[C@@H](C)CC)C(=O)N[C@@H](CCCN)C(=O)NCC(=O)NCC(=O)N1CCC[C@H]1C(=O)N[C@@H](CO)C(=O)N[C@@H](CO)C(=O)NCC(=O)N[C@@H](C)C(=O)N1CCC[C@H]1C(=O)N1CCC[C@H]1C(=O)N1CCC[C@H]1C(=O)N[C@@H](CO)C(N)=O` [Example 406], for which the 50% effective concentration (EC50) on hGCGR (setting [4]) was above 9950 nM; on hGCGR (setting [5]), above 9950 nM; at hGLP-1R (setting [7]), 0.351 nM; on hGIPR (setting [9]) it was 0.00896 nM. In addition, the Emax at hGLP-1R (HEK293, cAMP, 37° C., 0.1% bovine casein and 1.0% human serum albumin, percent of maximal response to GLP-1(7-36)NH2, read-out: hGLP-1R Emax, % ± SEM) is 96%; at hGLP-1R (setting [6]), 98.5%; at hGIPR (setting [8]) it was 87.3%.
For `CC[C@H](C)[C@H](NC(=O)[C@H](CC(C)C)NC(=O)[C@](C)(Cc1ccc(O)cc1)NC(=O)[C@@H](CCC(=O)O)NC(=O)[C@@H](NC(=O)[C@H](Cc1ccccc1)NC(=O)[C@H](CCCCNC(=O)COCCOCCNC(=O)COCCOCCNC(=O)CC[C@H](NC(=O)CCCCCCCCCOc1ccc(C(=O)O)cc1)C(=O)O)NC(=O)C(C)(C)NC(=O)[C@H](CCC(N)=O)NC(=O)[C@H](C)NC(=O)[C@H](CCCCNC(=O)COCCOCCNC(=O)COCCOCCNC(=O)CC[C@H](NC(=O)CCCCCCCCCOc1ccc(C(=O)O)cc1)C(=O)O)NC(=O)[C@H](CCCN)NC(=O)[C@H](CC(=O)O)NC(=O)[C@H](CC(C)C)NC(=O)[C@](C)(CC(C)C)NC(=O)[C@@H](NC(=O)C(C)(C)NC(=O)[C@H](Cc1ccncc1)NC(=O)[C@H](CC(=O)O)NC(=O)[C@H](CO)NC(=O)[C@@H](NC(=O)[C@](C)(Cc1ccccc1F)NC(=O)[C@@H](NC(=O)CNC(=O)[C@H](CCC(=O)O)NC(=O)C(C)(C)NC(=O)[C@@H](N)Cc1ccc(O)cc1)[C@@H](C)O)[C@@H](C)O)[C@@H](C)CC)[C@@H](C)CC)C(=O)N[C@@H](CCC(=O)O)C(=O)NCC(=O)NCC(=O)N1CCC[C@H]1C(=O)N[C@@H](CO)C(=O)N[C@@H](CO)C(=O)NCC(=O)N[C@@H](C)C(=O)N1CCC[C@H]1C(=O)N1CCC[C@H]1C(=O)N1CCC[C@H]1C(=O)N[C@@H](CO)C(N)=O` [Example 243], the EC50 at hGCGR (setting [1]) is above 9950 nM; at hGCGR (hGCGR EC50, nM (SEM, n), cAMP, incubated at 37° C., 0.1% bovine casein (no human serum albumin), geometric mean) it was above 9950 nM; on hGLP-1R (hGLP-1R EC50, nM (SEM, n), incubated at 37° C., 0.1% bovine casein (no human serum albumin), geometric mean), 0.86 nM; at hGIPR (setting [3]), 0.728 nM; at hGIPR (hGIPR EC50, nM (SEM, n), cAMP, incubated at 37° C., 0.1% bovine casein (no human serum albumin)) it was 0.0154 nM. Besides, the Emax worked out at 114% on hGLP-1R (HEK293, read-out: hGLP-1R Emax, % ± SEM, 0.1% bovine casein and 1.0% human serum albumin, 37° C., percent of maximal response to GLP-1(7-36)NH2); 93.2% on hGLP-1R (HEK293, read-out: hGLP-1R Emax, % ± SEM, percent of maximal response to GLP-1(7-36)NH2, 37° C., 0.1% bovine casein, arithmetic mean); 90.5% at hGIPR (setting [2]).
